Values after ≈ are worked out from the molar mass of the structure shown. Values joined by “and” are separate entries in the source; they are usually repeats but may differ in a detail not shown here. Equal entries are not always repeated.
Tests used:
S. aureus 8325-4 [1] = test: microbe, parasite or virus in culture; format: cell-based; conditions: Staphylococcus aureus, 83254, Erythrocyte, in Ovis aries, read-out: IC50 (antihemolytic)
S. aureus 8325-4 [2] = test: microbe, parasite or virus in culture; format: cell-based, Staphylococcus aureus; conditions: for MBC: Staphylococcus aureus, 83254, 24 h, read-out: Minimal bactericidal concentration MBC
[3] = biological target: T1, S. aureus α-hemolysin (αHL) (Staphylococcus aureus, UniProt P09616); test: cell-based
T1 sequence (P09616 27-319 limits assumed): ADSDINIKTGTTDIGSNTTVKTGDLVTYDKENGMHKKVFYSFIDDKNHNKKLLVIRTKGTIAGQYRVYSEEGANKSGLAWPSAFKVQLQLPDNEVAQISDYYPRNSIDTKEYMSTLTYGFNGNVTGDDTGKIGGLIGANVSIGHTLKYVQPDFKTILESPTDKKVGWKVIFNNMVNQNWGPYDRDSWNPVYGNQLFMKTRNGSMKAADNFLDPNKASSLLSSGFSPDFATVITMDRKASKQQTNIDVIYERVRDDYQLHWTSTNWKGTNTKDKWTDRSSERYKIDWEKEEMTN

S. aureus NCTC 5655 [4] = test: microbe, parasite or virus in culture; format: cell-based, Staphylococcus aureus; conditions: for MBC: Staphylococcus aureus, NCTC5655, 24 h, read-out: Minimal bactericidal concentration MBC
S. aureus NCTC 5655 [5] = test: microbe, parasite or virus in culture; format: cell-based; conditions: Staphylococcus aureus, NCTC5655, Erythrocyte, in Ovis aries, read-out: IC50 (antihemolytic)
erythrocyte membrane = format: cell-based, sheep
[6] = biological target: T1, S. aureus α-hemolysin (αHL); conditions: sheep

Compound | IC50 (S. aureus 8325-4 [1]) [µM] | MBC (S. aureus 8325-4 [2]) [µM] | IC50 [3] [µM] | MBC (S. aureus NCTC 5655 [4]) [µM] | IC50 (S. aureus NCTC 5655 [5]) [µM] | order parameter S/S0 (erythrocyte membrane) | increase of IC50 after washing of erythrocytes [6] | Minimal bactericidal concentration MBC (S. aureus 8325-4 [2]) [µM] | Minimal bactericidal concentration MBC (S. aureus NCTC 5655 [4]) [µM]
O=C(OCC1OC(OC(=O)c2cc(O)c(O)c(O)c2)C(OC(=O)c2cc(O)c(O)c(O)c2)C(OC(=O)c2cc(O)c(O)c(OC(=O)c3cc(O)c(O)c(O)c3)c2)C1OC(=O)c1cc(O)c(O)c(O)c1)c1cc(O)c(O)c(OC(=O)c2cc(O)c(O)c(O)c2)c1 [Compound T1, 3,6-bis-O-di-O-galloyl-1,2,4-tri-O-galloyl-β-D-glucose] | 8.7 ± 0.81 | 50 (≈ 62.2 µg/mL) | 2.94 ± 1.45 | 25 (≈ 31.1 µg/mL) | 7.26 ± 0.29 | – | – | – | –
O=C(OCC1OC(OC(=O)c2cc(O)c(O)c(O)c2)C(OC(=O)c2cc(O)c(O)c(O)c2)C(OC(=O)c2cc(O)c(O)c(O)c2)C1OC(=O)c1cc(O)c(O)c(O)c1)c1cc(O)c(O)c(O)c1 [Compound T2, 1,2,3,4,5-penta-O-galloyl-β-D-glucose] | 22.4 ± 2.8 | 75 (≈ 70.6 µg/mL) | 3.52 ± 1.37 | 50 (≈ 47 µg/mL) | 13 ± 1.18 | 1.267 ± 0.0398 and 0.662 ± 0.072 | – | – | –
O=C(OC1C(O)C(CO)OC2OC(=O)c3cc(Oc4c(C(=O)O)cc(O)c(O)c4O)c(O)c(O)c3-c3c(cc(O)c(O)c3O)C(=O)OC21)c1cc(O)c(O)c(O)c1 [Compound T3, 3-O-galloyl-1,2-valoneoyl-β-D-glucose] | 52.2 ± 1.2 | 100 (≈ 80.3 µg/mL) | 27.5 ± 1.06 | 100 (≈ 80.3 µg/mL) | 90.6 ± 22.7 | 0.947 ± 0.028 and 0.911 ± 0.042 | approximately 40 fold | – | –
O=C(OC1OC2COC(=O)c3cc(Oc4c(C(=O)O)cc(O)c(O)c4O)c(O)c(O)c3-c3c(cc(O)c(O)c3O)C(=O)OC2C(O)C1OC(=O)c1cc(O)c(O)c(O)c1)c1cc(O)c(O)c(O)c1 [Compound T4, 1,2-di-O-galloyl-4,6-valoneoyl-β-D-glucose] | 60.4 ± 3.3 | 100 (≈ 95.5 µg/mL) | 14.5 ± 1.1 | 100 (≈ 95.5 µg/mL) | 59.5 ± 9.6 | 1.074 ± 0.059 and 0.885 ± 0.073 | approximately 40 fold | 75 (≈ 71.6 µg/mL) | 75 (≈ 71.6 µg/mL)

Reference: PMC7341856 (Scientific Reports, 2020)
